From patent US5478726A, “Mycobacterial recombinants and peptides” (priority 1992, dated 1995)

Experiments:
T cell clone A7JM = conditions: A7JM against macrophages pulsed with the antigen; 7 days
T cell clone K8AH = conditions: K8AH against macrophages pulsed with the antigen; 7 days
[1] = tested on: serum from human patients known to be infected with M. tuberculosis; assay type: binding; conditions: Western blot; preliminary studies

`CC[C@H](C)[C@H](NC(=O)[C@H](Cc1ccc(O)cc1)NC(=O)[C@@H]1CCCN1C(=O)[C@H](CC(=O)O)NC(=O)[C@H](CCC(=O)O)NC(=O)[C@H](CC(C)C)NC(=O)[C@@H](NC(=O)[C@H](C)N)C(C)C)C(=O)N[C@@H](CC(C)C)C(=O)N[C@@H](CC(C)C)C(=O)N[C@H](C(=O)N[C@@H](CO)C(=O)N[C@@H](CO)C(=O)N[C@@H](CCCCN)C(=O)N[C@H](C(=O)O)C(C)C)C(C)C` [Peptide 22, A V L E D P Y I L L V S S K V] gave a Cytotoxicity (T cell clone A7JM) of 82.7 ± 10 percentages.
`CC[C@H](C)[C@H](NC(=O)[C@@H](NC(=O)[C@H](CCCCN)NC(=O)[C@H](CCC(=O)O)NC(=O)[C@H](CC(C)C)NC(=O)[C@H](CC(C)C)NC(=O)[C@@H]1CCCN1C(=O)[C@H](CC(C)C)NC(=O)[C@@H](N)CC(C)C)C(C)C)C(=O)NCC(=O)N[C@@H](C)C(=O)NCC(=O)N[C@@H](CCCCN)C(=O)N1CCC[C@H]1C(=O)N[C@@H](CC(C)C)C(=O)O` [Peptide 24, L L P L L E K V I G A G K P L] gave a Cytotoxicity (T cell clone K8AH) of 86.5 ± 0.6 percentages.
“purified recombinant 65KD protein: purified recombinant 65KD (540 amino acid residue) protein of M. tuberculosis” was tested, and the “Immunoreaction with antisera from infected patients” value [1] was “immunoreacted”.
